Here are results for 2 molecules from US7879835B2 (Korea Research Institute of Chemical Technology, priority 2004, dated 2011).

In series [1] the test system is osteoclast (TRAP-positive multinuclear cell) formation. The series can be described thus: Inhibitory effect on osteoclast formation (TRAP staining). The format is cell-based, mice. The note with it: Mus musculus, Osteoclast, compared to control, read-out: Osteoclast formation inhibitory effects (%). A digest of the protocol:
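Non-adherent bone marrow cells from 7–9-week-old female mice, 2×10^5 per well, cultured 8 days with M-CSF (20 ng/ml), RANKL (30 ng/ml) and compound at 0.3, 1.0 or 3 μM. Formation scored by TRAP staining after fixation, 1 h at 37 °C, pH 5.0.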

Series [2] concerns female mice with osteoporosis induced by ovariectomy. The experiment in a line: Bone mineral density (BMD) of ovariectomized multiparous mice. The format is in vivo. The settings on record: for decrease of BMD: after 8 weeks. How it is done:
The effect of Compound Nos. 274 and 388 of the present invention on BMD of female mice with osteoporosis induced by ovariectomy was examined as follows.
Specifically, after anesthetizing female mice used as a control by abdominal administration with a mixture of 10 mg/kg body weight of Ketamin HCl (Ketara) and 0.15 ml/kg body weight of 2% Xylazine HCl (Roupun), the lumbar dorsum of each mouse was shaved bilaterally and the exposed skin was prepared for aseptic surgery by a 10% povidone-iodine scrub followed by a 70% alcohol wipe. A 1-cm incision was made in the central region of the abdomen, and the ovaries were identified with caution not to damage the main organs such as the liver and diaphragm. The ovaries were ligated with a suture thread, and then severed. Thereafter, each organ was relocated to its original position, and the incision was closed with a suture thread in an interrupted pattern. After ovariectomy, the mice were injected with 0.088 mg/kg body weight of gentamicin to prevent infection.
To investigate the change in BMD of the mice, bone mineral density was measured before the ovariectomy and every two weeks for 8 weeks after the ovariectomy using a bone mineral densitometer, XCT 540 Research SA (Stratec, Germany). Specifically, BMD measurement was made at a voxel size of 0.1 mm×0.1 mm, threshold values of 280 mg/cm^2 for cancellous bone and 500 mg/cm^2 for compact bone, and the analysis sites at the proximal tibias were determined by Scout scans (10 mm/sec). BMD was measured at three slices at the determined sites by CT scans (7 mm/sec), and the measurement was performed twice or more at the same site.
Multiparous mice each weighing […] were subjected to ovariectomy in accordance with the method of (3-1). From the 2nd day to 12th week after the ovariectomy, the mice were injected subcutaneously once a day with 0.5 and 1 mg/kg body weight/day of Compound Nos. 274 and 388, respectively. Alternatively, the mice were administered orally with 2.5 and 7.5 mg/kg body weight/day of Compound Nos. 274 and 388. BMD was measured before the ovariectomy, and during the period of the 2nd week to 11th week after the ovariectomy.

A short description of series [3]: In vitro pharmacokinetics: metabolic stability in liver microsome. The format is in vitro ADME. The note with it: human liver microsome 1 mg/ml, 20 μM compound; for half-life at 20 µM: liver microsomes. How it is done: Metabolic stabilities of the compounds of the Examples were examined by employing microsome samples prepared from the human liver.
Each 20 μM of the compounds were reacted with 1 mg/ml of liver microsome and the half-lives and one-hour stabilities of the compounds were determined.
For orientation: Liver microsomes are a subcellular fraction often used to study metabolism.

The subject of series [4] is rats. The series can be described thus: In vivo acute toxicity test (LD50). The note with it: single dose, 2 weeks observation. How it is done:
In order to determine the acute toxicities of the compounds prepared in Examples, 6-week old specific pathogen-free (SPF) rats each weighing […] were divided into groups of 10 rat each.
In case of subcutaneous administration, each of the compounds was dissolved in 5% PEG400 solution to a concentration of 20 mg/ml, the resulting solution was serially diluted with 5% PEG400 solution to concentrations of 5, 2.5, 1.25 and 0.625 mg/ml, and the dilutions were subcutaneously injected once to the rats at a dose of 10 ml/kg body weight.
In case of oral administration, each of the compounds was dissolved in soybean oil to a concentration of 180 mg/ml, the resulting solution was serially diluted with soybean oil to concentrations of 80, 20 and 5 mg/ml, and the dilutions were orally administered once to the rats at a dose of 20 ml/kg body weight. […]
During 2 weeks after the administration of the compounds, the death rate, clinical symptoms and weight changes of the rats were observed, and hematological and biochemical tests on blood samples were performed. Then, the rats were sacrificed and the internal organs were visually examined to check any abnormal signs in the organs of chest and abdomen.

Molecules are shown by their SMILES. Like-named read-outs stand apart in the source and are kept apart here.

By half-life is commonly meant how long it takes for the measured level to halve. On to `CO/C=C(/C(=O)OC)c1ccccc1COc1cccc(N2CCCCC2)c1` [Compound No. 388, (E)-methyl-2-[2-((3-(piperidin-1-yl)phenoxy)methyl)phenyl]-3-methoxyacrylate], for which the inhibition at 0.1 µM in series [1] (0.1 μM (Table 4b)) came out at 0%. In addition, in series [1] (0.3 μM (Table 4b)), the inhibition at 0.3 µM worked out at 99%. Also, the inhibition at 1 µM in series [1] (1 μM (Table 4b)) came to 100%. The inhibition at 3 µM in series [1] (3 μM (Table 4b)) was 100%. Besides, the “decrease of BMD” value in series [2] (oral administration 2.5 mg/kg) was 10.6%; in series [2] (oral administration 7.5 mg/kg), 10.2%; in series [2] (subcutaneous injection 0.5 mg/kg), 5.0%; in series [2] (subcutaneous injection 1 mg/kg), 6.7%. Besides, in series [3], the half-life at 20 µM was 30.7 min. Besides, the LD50 in series [4] (PO) was 110-130 mg/kg body weight.
For the molecule `CO/C=C(/C(=O)OC)c1ccc(Cl)cc1COc1ccc(OCCOC)cc1` [Compound No. 274, (E)-methyl-2-(2-((4-(2-methoxyethoxy)phenoxy)methyl)-4-chlorophenyl)-3-methoxyacrylate], in series [1] (192 h, 0.3 μM, 8 days culture with M-CSF and RANKL), the inhibition at 0.3 µM turned out to be 100%. Besides, in series [1] (192 h, 1.0 μM, 8 days culture with M-CSF and RANKL), the inhibition at 1 µM is 100%. Also, the inhibition at 3 µM in series [1] (192 h, 3.0 μM, 8 days culture with M-CSF and RANKL) was determined as 100%. In series [2] (oral administration (2.5 and 7.5 mg/kg body weight/day), FIGS. 1a and 1b), the “increase of BMD” value is 0.8%. The “change of BMD” value in series [2] (subcutaneous injection once a day (0.5 and 1 mg/kg body weight/day), FIGS. 1a and 1b) is on record as “no decrease of BMD”. In addition, in series [3], the One-hour stability stood at 72% and the half-life at 20 µM was > 180 min. For the same molecule, the LD50 in series [4] (PO) amounted to 460 mg/kg body weight. Further, the LD50 in series [4] (SC) stood at 11 mg/kg body weight.
